This note sets out measurements from patent US5840697A, “Peptide inhibitors of calmodulin” (Torrey Pines Institute for Molecular Studies, priority 1996, dated 1998).

In assay [1] the test system is normal rat kidney (NRK) cells. As to the kind of experiment: DNA synthesis ([3H]-thymidine incorporation) in cell culture. The settings on record: added at 5 hr. The class given is cell-based. As for the experimental part: Following the methods described in Lopez-Girona et al., Cell Calcium, 18:30-40 (1995), which is incorporated herein by reference, the effect of calmodulin inhibitory peptides on DNA synthesis was investigated. Specifically, peptides were added to culture media and assessed for their ability to inhibit the progression of normal rat kidney (NRK) cells into the S phase of the cell cycle; the DNA synthesis phase into the cell growth cycle. Such inhibition has been shown for existing anti-calmodulin drugs such as W13.
NRK cells were made quiescent by growing them to confluence in Dulbecco's minimum essential medium supplemented with 5% fetal calf serum (FCS), and then kept for 3-4 days in the same medium but with only 0.5% FCS. To allow them to re-enter the cell cycle, quiescent cells were trypsinized and subcultured at a lower density in fresh medium supplemented with 5% FCS.
DNA synthesis was analyzed by the measurement of [^3 H]-thymidine into whole cell DNA. NRK cells (10^5 per 35 mm plate) were pulse labeled for 1 hr with [methyl-^3 H]-thymidine (5 Ci/mmol) at 4 μCi/ml in Dulbecco's minimum essential medium supplemented with 5% FCS. Precipitation and solubilization of DNA was carried out as described in Cripps-Wolfman et al., J. Biol. Chem., 264:19478-19486 (1989), which is incorporated herein by reference.
The NRK cells stimulated to proliferate by addition of 5% FCS enter synchronously into the cell cycle and start the S phase after 12 hr reaching a maximum between 18 to 20 hr. The peptides were added at 5 hr (time at which the cells have already reenter the G1 phase). […] Similar results were found between the (D)-amino acid peptides and their (L)-counterpart.
In general terms: Uptake of a labelled nucleoside into DNA is a usual measure of proliferation.

The target in assay [2] is calmodulin (Homo sapiens, UniProt P0DP23). As to the kind of experiment: calcium-dependent phosphodiesterase assay (calmodulin activity). The class given is biochemical. The settings on record: for SPECIFICITY: comparison of IC50 for phosphodiesterase with IC50 for calmodulin. The procedure:
In the calcium dependent phosphodiesterase assay, calmodulin can be assayed by its ability to stimulate phosphodiesterase activity as determined by a two-step assay procedure illustrated by reactions (1) and (2) below. [drawing 1]
During the first step of the assay cyclic adenosine 3'5'-monophosphate (cAMP) is incubated with calcium-activated phosphodiesterase (Cal-PDE), which hydrolyses the 3'bond producing adenosine 5'-monophosphate (5'-AMP). During the second step, 5'-AMP is quantitatively converted into adenosine and inorganic phosphate (Pi) through the action of a 5-nucleotidase. The reaction is followed by the measurement of the Pi formed by reading the absorbance at 660 nm after reacting with ammonium molybdate. The amount of Pi formed is directly related to the phosphodiesterase activity which depends on the level of activation by calmodulin.
To sample assay tubes were added the following components: assay buffer, 25 ul; CaCl2, 5 ul; 5'-nucleotidase, 7.5 ul (stock solution is 10 units/ml); calmodulin 5 units; calmodulin inhibitor peptides to obtain the desired final concentration of 50 μM. The volume was then made up to 200 ul with water. Control blanks were prepared replacing the peptides with water. The added components were thoroughly mixed and the tubes incubated at 30° C. for 10 min. […] The samples were centrifuged to remove the protein precipitate and the 50 ul of the supernatant was withdrawn for phosphate measurement. […] The absorbance of the solution were read at 660 nm using water as a blank, identified as control "Calmo."
The two controls used in the assay, one without and one with calmodulin, as indicated in FIG. 1 and Table I were as follows,: (1) PDE:
These three controls were used in the calcium-dependent phosphodiesterase assay for reproducibility of the assay.
In addition to the calcium-dependent phosphodiesterase assay data, IC50 values were determined for many of the peptides. The assay carried out for the determination in the IC50 values differed from the above screening assay by the concentration of the peptides being tested.
(3) TFP: trifluoperazine; and (4) Calmidasolium: (1-[bis-(4-chlorophenyl)methyl]-3[-2-(2,4-dichlorophenyl)-2[(2,4-dichlorophenyl)methoxy]-ethyl]-1H-imidazolium chloride. The IC50 values were calculated using sigmoidal curve software (Graphpad, ISI; San Diego, Calif.) using the % inhibition at different mixture concentrations (see protocol for determination of % inhibition).
The (L)-amino acid counterpart for five (5) of the all (D)-amino acid peptides identified from the PS-SCL were synthesized in order to study the stereoselectivity of the inhibition.

Assay [3] deals with NRK cells. Put plainly: long term stability: number of NRK cells at 48 hr after activation. The class given is cell-based, rat. The note with it: added at 5 hr, counted 48 hr after activation. The source says: The similar activity found for the (L)-amino acid peptides and (D)-amino acid peptides indicate that the inhibition of calmodulin occurs rapidly following the addition of the inhibitory peptides. The peptides' long term stability was then studied by adding Ac-(D)Leu-(D)Trp-(D)Arg-(D)Ile-(D)Leu-(D)Trp-NH2, Ac-Leu-Trp-Arg-Ile-Leu-Trp-NH2 (SEQ ID No. 48), W13 and W12 at 5 hr following the reentry of the NRK cells into the cell cycle and measuring the number of cells at 48 hr after activation.

Assay [4] deals with phosphodiesterase. As to the kind of experiment: calcium-dependent phosphodiesterase assay in the absence of calmodulin. The note with it: Table III. The class given is biochemical. As for the experimental part:
To sample assay tubes were added the following components: assay buffer, 25 ul; CaCl2, 5 ul; 5'-nucleotidase, 7.5 ul (stock solution is 10 units/ml); calmodulin 5 units; calmodulin inhibitor peptides to obtain the desired final concentration of 50 μM. The volume was then made up to 200 ul with water. Control blanks were prepared replacing the peptides with water. The added components were thoroughly mixed and the tubes incubated at 30° C. for 10 min. Then, 25 ul of cAMP at 10.8 mM was added and incubated for 90 min at 30° C. The reaction was stopped by the addition of 50 ul of 55% trichloroacetic acid (TCA). The samples were centrifuged to remove the protein precipitate and the 50 ul of the supernatant was withdrawn for phosphate measurement. To the supernatant aliquot, 50 ul ammonium molybdate (0.55% in 1.1 N sulfuric acid) was added, followed by the addition of 5 ul of reducing agent (24 g sodium bisulfite, 2.4 g sodium sulfite, 0.5 g of 1-amino-2-naphthol-4-sulfonic acid in 200 ml of water), and the contents were mixed by vortexing. The absorbance of the solution were read at 660 nm using water as a blank, identified as control "Calmo."
As described above, one of the undesirable biological effects of existing calmodulin inhibitors is their non-specific binding to other proteins and the like. Therefore, the specificity of the instant inhibitory peptides for calmodulin was examined. The specificity was determined using the calcium-dependent phosphodiesterase assay described in Example I. The assay was carried out for the determination of IC50 values in the presence of calmodulin (IC50 value for calmodulin) and in the absence of calmodulin (IC50 for phosphodiesterase), the latter of which provides the effect of the inhibitory peptides on the phosphodiesterase.

Assay [5] concerns rat liver cells. As to the kind of experiment: in vivo rat model: DNA synthesis of rat liver cells after partial hepatectomy. The settings on record: intravenous injection 5 hours after partial hepatectomy, measured 24 hours post hepatectomy. From the text: The effect that calmodulin inhibitors have on DNA synthesis were also studied in vivo in a rat model. Rat liver cells are a useful in vivo system for studying synchronized cells and the cell cycle. By partial hepatectomy, the hepatocyte quiescent cells present in normal adult rat liver can be stimulated to enter the replicative cell cycle and the effect of inhibitors on the cycle analyzed. This example provides the effect of the subject calmodulin inhibitory peptides on the DNA synthesis of rat liver cells in partial hepatectomy stage following intra venal injection of the peptides.
Male Sprague-Dawley rats ([…]; 2 rats per peptide or control) were fasted overnight. Partial hepatectomies were carried out under Ketolar anesthesia (Parke-Davis; Ann Arbor, Mich.), following the procedure described by Higgins and Anderson in Arch. Pathol., 12:186-202 (1931), which is incorporated herein by reference. […] DNA synthesis was assessed by measuring the radioactivity incorporated into DNA following an intraperitoneal injection (0.5 mCi/g body weight) of [^3 H] thymidine 1 hr prior to killing the rat and at 23 hours post hepatectomy. […] The liver tissue was homogenized in 10% trifluoroacetic acid at 4° C. and the DNA extracted and its radioactivity measured following the procedure described by Burton, Biochem. J., 62:315-320 (1956), which is incorporated herein by reference. […]

[6] abbreviates: Table I, assayed at 75, 50 and 12.5 μM, average of repeated assays, read-out: Average IC50.

Where two headings read alike, the source gives them in different places. Square brackets hold non-standard residues; d marks the D form. Peptide text beside a SMILES is read from it.

`NCCCCNS(=O)(=O)c1ccc2c(Cl)cccc2c1` [Peptide W13, N-(4-aminobutyl)-5-chloro-2-naphtalenesulfonamide, reference compound]: the “% DNA SYNTHESIS” value in assay [1] (30 μM) is recorded as 60%. The IC50 (usually the concentration that inhibits the measured activity by half) in assay [2] (setting [6]) was found to be 93 µM. Moreover, the “number of cells relative to control cells” value in assay [3] is on record as “significantly lower number of cells”.

Turning to `CC[C@H](C)[C@H](NC(=O)[C@H](CCCNC(=N)N)NC(=O)[C@H](Cc1c[nH]c2ccccc12)NC(=O)[C@H](CC(C)C)NC(C)=O)C(=O)N[C@@H](CC(C)C)C(=O)N[C@@H](Cc1c[nH]c2ccccc12)C(N)=O` [Ac-Leu-Trp-Arg-Ile-Leu-Trp-NH2] (Ac-LWRILW-NH2), the IC50 in assay [4] is greater than 200 µM; in assay [2] (Table II, (L)-amino acid peptides, concentrations 0.2 to 50.0 μM, read-out: IC50), 0.88 µM. Further, in assay [2] ((L)-amino acid peptides of Table II), the “calmodulin inhibitory activity, in words” value is given as “especially high activity”. In assay [2], the SPECIFICITY was greater than 227. In addition, the “number of cells relative to control cells” value in assay [3] is “the same number of cells”.

With `NCCCCNS(=O)(=O)c1ccc2ccccc2c1` [Peptide W12, reference compound], the “% DNA SYNTHESIS” value in assay [1] (30 μM) is reported as 100%. Moreover, in assay [3], the “number of cells relative to control cells” value is recorded as “the same number of cells”.

Take `CC[C@@H](C)[C@@H](NC(=O)[C@@H](CCC(N)=O)NC(=O)[C@@H](CC(C)C)NC(C)=O)C(=O)N[C@H](Cc1c[nH]cn1)C(=O)N[C@H](CC(C)C)C(=O)N[C@H](CCCNC(=N)N)C(N)=O` [Ac-(D)Leu-(D)Gln-(D)Ile-(D)His-(D)Leu-(D)Arg-NH2] (Ac-[dL][dQ][dI][dH][dL][dR]-NH2): the “% DNA SYNTHESIS” value in assay [5] is on record as 100%; in assay [1] (7.5 μM), 100%; in assay [1] (15 μM), 84%. The IC50 in assay [4] was determined as 104 µM; in assay [2] (setting [6]), 70 µM; in assay [2] (Table III, in the presence of calmodulin, read-out: IC50 (μM) for calmodulin), 43 µM. Further, the SPECIFICITY in assay [2] turned out to be 2.4.
